According to patent US20240400584A1, “COMPOUNDS AND METHODS FOR MODULATING SPLICING” (REMIX THERAPEUTICS INC., priority 2021, published 2024):

What was measured:
[1] = system: MYB; assay: RT-qPCR splicing assay, MYB AJ/CJ mRNA; assay type: cell-based; details: Homo sapiens, A673 or K562 cells, 24 hours; for IC50: decrease in canonical junction mRNA; for AC50: increase in alternative junction mRNA
Outline: (§1)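 HTT and MYB canonical (CJ) and alternative-exon (AJ) junction transcripts quantified by one-step RT-qPCR from lysates of A673 or K562 cells treated 24 h with 11-point 3-fold dilutions (top 10 uM, ≤0.25% DMSO). Ct normalized to GAPDH, GUSB or PPIA and DMSO control (2^−ΔΔCt), expressed as % response.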

[2] = system: SMN2; assay: Gene panel canonical junction qPCR assay, SMN2 CJ mRNA (Table 7); assay type: cell-based; details: Homo sapiens, read-out: SMN2 CJ mRNA decrease IC50
Outline: (§2)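 A673 or K562 cells were treated with compound; lysates went through cDNA synthesis and RT-qPCR, with a probe or primer spanning the canonical exon–exon junction. ΔCt vs housekeeper (GAPDH, GUSB or PPIA), normalized to DMSO (2^(−ΔΔCt)), converted to percentage response; IC50 from 4-parameter logistic fit of CJ decrease.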

[3] = system: HTT; assay: Gene panel canonical junction qPCR assay, HTT CJ mRNA (Table 7); assay type: cell-based, human; details: Homo sapiens, read-out: HTT CJ mRNA decrease IC50
Outline: as §2

[4] = system: MYB; assay: Gene panel canonical junction qPCR assay, MYB CJ mRNA (Table 7); assay type: cell-based; details: Homo sapiens, read-out: MYB CJ mRNA decrease IC50
Outline: as §2

[5] = system: Target C; assay: Gene panel canonical junction qPCR assay, Target C CJ mRNA (Table 7); assay type: cell-based, human; details: Homo sapiens, read-out: Target C CJ mRNA decrease IC50
Outline: as §2

[6] = system: HTT; assay: RT-qPCR splicing assay, HTT AJ/CJ mRNA; assay type: cell-based, human; details: Homo sapiens, A673 or K562 cells; for IC50: decrease in canonical junction mRNA; for AC50: increase in alternative junction mRNA
Outline: as §1

Row | IC50 [1] [nM] | IC50 [2] [nM] | IC50 [3] [nM] | IC50 [4] [nM] | IC50 [5] [nM] | IC50 ([6]; 24 h) [nM] | Compound | AC50 [1] [nM] | AC50 ([6]; 24 h) [nM] | IC50 ([6]; 24 hours) [nM] | AC50 ([6]; 24 hours) [nM]
1 | 100 to 1000 | < 100 | < 100 | 100 to 1000 | 100 to 1000 | < 100 | COc1cc(-c2ccc3c(c2)COc2nc(N4CCC(C)(NC(C)C)C4)ccc2-3)cnn1 (stereo not shown) [Compound 309] | 100 to 1000 | < 100 |  | 
2 | 100 to 1000 | 100 to 1000 | 100 to 1000 | 100 to 1000 | 100 to 1000 | 100 to 1000 | c1cnn(-c2ccc3c(c2)COc2nc(N4CCC5(CC4)CNC5)ccc2-3)c1 [Compound 169] | 100 to 1000 | 100 to 1000 |  | 
3 | 1000 to 10000 | 100 to 1000 | 100 to 1000 | 1000 to 10000 | 100 to 1000 | 100 to 1000 | COc1cc(-c2ccc3c(c2)COc2nc(N4CCC(NCC5CC5)C4)ccc2-3)cnn1 (stereo not shown) [Compound 264, N-(cyclopropylmethyl)-1-[8-(6-methoxypyridazin-4-yl)-6H-isochromeno [3,4-b]378yrrolid-3-yl]378yrrolidine-3-amine] | 1000 to 10000 | 100 to 1000 |  | 
4 | > 10000 | 100 to 1000 | 1000 to 10000 | > 10000 | > 10000 | 1000 to 10000 | Cc1cc(-c2ccc3c(c2)COc2nc(N4CC[C@@H](NC(C)(C)C)C4)ccc2-3)cnn1 (single isomer, unassigned) [Compound 274, N-tert-butyl-1-[8-(6-methylpyridazin-4-yl)-6H-isochromeno[3,4-b]379yrrolid-3-yl]379yrrolidine-3-amine] | > 10000 | > 10000 |  | 
5 | 100 to 1000 | 100 to 1000 | 100 to 1000 | 100 to 1000 | 100 to 1000 | 100 to 1000 | CC1(C)CC(Oc2ccc3c(n2)OCc2cc(-c4cn[nH]c4)ccc2-3)CC(C)(C)N1 [Compound 219, 8-(1H-pyrazol-4-yl)-3-((2,2,6,6-tetramethylpiperidin-4-yl)oxy)-6H-isochromeno [3,4-b] pyridine] | > 10000 | 100 to 1000 |  | 
6 | > 10000 | 1000 to 10000 | > 10000 | > 10000 | > 10000 | > 10000 | CC(C)(C)NC1CCN(c2ccc3c(n2)OCc2cc(-c4cnnc(C5CC5)c4)ccc2-3)C1 (stereo not shown) [Compound 266, N-tert-butyl-1-[8-(6-cyclopropylpyridazin-4-yl)-6H-isochromeno[3,4-b]pyridin-3-yl]pyrrolidin-3-amine] | > 10000 | > 10000 |  | 
7 | 100 to 1000 | < 100 | < 100 | 100 to 1000 | < 100 | < 100 | COc1cc(-c2ccc3c(c2)COc2nc(N4CCC(NC(C)(C)C)C4)ccc2-3)cnn1 (stereo not shown) [Compound 251, N-tert-butyl-1-[8-(6-methoxypyridazin-4-yl)-6H-isochromeno[3,4-b]pyridin-3-yl]pyrrolidin-3-amine] | 100 to 1000 | < 100 |  | 
8 | 100 to 1000 | < 100 | < 100 | 100 to 1000 | 100 to 1000 | < 100 | COc1cc(-c2ccc3c(c2)COc2nc(N4CCNC(C(C)(C)C)C4)ccc2-3)cnn1 (stereo not shown) [Compound 304] | 100 to 1000 | < 100 |  | 
9 | 1000 to 10000 | 100 to 1000 | > 10000 | 1000 to 10000 | > 10000 | > 10000 | c1cnn(-c2ccc3c(c2)COc2nc(N4CCC5(CCCNC5)C4)ccc2-3)c1 (stereo not shown) [Compound 183] | > 10000 | > 10000 |  | 
10 | 1000 to 10000 | 100 to 1000 | 100 to 1000 | 1000 to 10000 | 100 to 1000 | 100 to 1000 | COc1cc(-c2ccc3c(c2)COc2nc(N4CCC(NC5(C)CC5)C4)ccc2-3)cnn1 (stereo not shown) [Compound 256, 1-[8-(6-methoxypyridazin-4-yl)-6H-isochromeno[3,4-b]pyridin-3-yl]-N-(1-methylcyclopropyl)pyrrolidin-3-amine] | 1000 to 10000 | 100 to 1000 |  | 

The remaining lines, values behind:

Row | Compound | IC50 [1] [nM] | IC50 [2] [nM] | IC50 [3] [nM] | IC50 [4] [nM] | IC50 [5] [nM] | IC50 ([6]; 24 h) [nM] | AC50 [1] [nM] | AC50 ([6]; 24 h) [nM] | IC50 ([6]; 24 hours) [nM] | AC50 ([6]; 24 hours) [nM]
11 | COc1cc(-c2ccc3c(c2)COc2nc(N4CCC(NC(C)C)CC4)ccc2-3)cnn1 [Compound 301, N-isopropyl-1-[8-(6-methoxypyridazin-4-yl)-6H-isochromeno[3,4-b]pyridin-3-yl] piperidin-4-amine] | 1000 to 10000 | 1000 to 10000 | 1000 to 10000 | 1000 to 10000 | 1000 to 10000 |  | 1000 to 10000 |  | 1000 to 10000 | 100 to 1000
12 | CN(c1ccc2c(n1)OCc1cc(-n3cccn3)ccc1-2)[C@H]1C[C@]2(C)CC[C@](C)(C1)N2 [Compound 180] | 100 to 1000 | < 100 | < 100 | 100 to 1000 | 100 to 1000 | < 100 | 100 to 1000 | < 100 |  | 
13 | COc1cc(-c2ccc3c(c2)COc2nc(N(C)[C@@H]4C[C@H]5COC[C@@H](C4)N5)ccc2-3)cnn1 [Compound 232, (1R,5S,7r)-N-[8-(6-methoxypyridazin-4-yl)-6H-isochromeno[3,4-b]pyridin-3-yl]-N-methyl-3-oxa-9-azabicyclo[3.3.1]nonan-7-amine] | 100 to 1000 | < 100 | < 100 | 100 to 1000 | < 100 | < 100 | < 100 | < 100 |  | 
14 | c1cnn(-c2ccc3c(c2)COc2nc(O[C@@H]4C[C@H]5CCC[C@@H](C4)N5)ccc2-3)c1 [Compound 198] | 100 to 1000 | 100 to 1000 | 100 to 1000 | 100 to 1000 | 1000 to 10000 | 100 to 1000 | 100 to 1000 | 100 to 1000 |  | 
15 | CCN(c1ccc2c(n1)OCc1cc(-n3cccn3)ccc1-2)C1CCNCC1 [Compound 177] | > 10000 | > 10000 | > 10000 | > 10000 | > 10000 | > 10000 | > 10000 | > 10000 |  | 
16 | CC1(C)CC(Oc2ccc3c(n2)OCc2cc(-n4cccn4)ccc2-3)CCN1 (stereo not shown) [Compound 186] | 1000 to 10000 | 100 to 1000 | 1000 to 10000 | 1000 to 10000 | > 10000 | 1000 to 10000 | > 10000 | 1000 to 10000 |  | 
17 | COc1cc(-c2ccc3c(c2)COc2nc(N(C)C4CC(C)(C)NC(C)(C)C4)ncc2-3)cnn1 [Compound 276, N-[8-(6-methoxypyridazin-4-yl)-6H-isochromeno[3,4-d]pyrimidin-3-yl]-N,2,2,6,6-pentamethylpiperidin-4-amine] | 1000 to 10000 | 100 to 1000 | 100 to 1000 | 1000 to 10000 | 100 to 1000 | 100 to 1000 | 1000 to 10000 | 100 to 1000 |  | 
18 | FC1(F)CC2CC(Nc3ccc4c(n3)OCc3cc(-c5cn[nH]c5)ccc3-4)CC1N2 (stereo not shown) [Compound 241, 6,6-difluoro-N-[8-(1H-pyrazol-4-yl)-6H-isochromeno[3,4-b]pyridin-3-yl]-8-azabicyclo[3.2.1]octan-3-amine] | 1000 to 10000 | 1000 to 10000 | 1000 to 10000 | 1000 to 10000 | 1000 to 10000 | 1000 to 10000 | 1000 to 10000 | 1000 to 10000 |  | 
19 | COc1cc(-c2ccc3c(c2)COc2nc(N(C)[C@H]4C[C@H]5COC[C@@H](C4)N5)ccc2-3)cnn1 [Compound 246] | > 10000 | 1000 to 10000 | > 10000 | > 10000 | > 10000 | > 10000 | 1000 to 10000 | > 10000 |  | 
20 | c1cnn(-c2ccc3c(c2)COc2nc(OC4CCNCC4)ccc2-3)c1 [Compound 187] | > 10000 | 1000 to 10000 | 1000 to 10000 | > 10000 | > 10000 | 1000 to 10000 | > 10000 | > 10000 |  | 
21 | FC1(F)CC2CC(Oc3ccc4c(n3)OCc3cc(-c5cn[nH]c5)ccc3-4)CC1N2 (stereo not shown) [Compound 224, 6,6-difluoro-3-{[8-(1H-pyrazol-4-yl)-6H-isochromeno[3,4-b]pyridin-3-yl]oxy}-8-azabicyclo[3.2.1]octane] | > 10000 | 1000 to 10000 | 1000 to 10000 | > 10000 | > 10000 | 1000 to 10000 | > 10000 | 1000 to 10000 |  | 
22 | [2H]C([2H])([2H])N(c1ccc2c(n1)OCc1cc(-n3cccn3)ccc1-2)C1C[C@H]2CCC[C@@H](C1)N2 (stereo partly shown) [Compound 200] | 100 to 1000 | < 100 | < 100 | 100 to 1000 | 100 to 1000 | < 100 | 100 to 1000 | < 100 |  | 
23 | c1cnn(-c2ccc3c(c2)COc2nc(N[C@@H]4C[C@H]5CCC[C@@H](C4)N5)ccc2-3)c1 [Compound 190] | 100 to 1000 | < 100 | < 100 | 100 to 1000 | 100 to 1000 | < 100 | 100 to 1000 | 100 to 1000 |  | 
